Read-outs that look alike come from different tables or passages of the source.
Columns and labels:
DAGLs = assay: time-course of DAGL inhibition and recovery in mice, competitive ABPP with compound 58 probe; type: in vivo, mouse; details: 50 mg/kg
Description: Inhibition of DAGL in mice with DAGL compounds 14 and 17 was investigated as a function of time as determined by competitive ABPP using the compound 58 probe (1 μM, 30 min).

DAGLα [1] = biological target: T1, DAGLα (Mus musculus (Mouse), UniProt Q6WQJ1); assay: in vivo ABPP coupled to quantitative mass spectrometry (FP-biotin, ReDiMe); details: brain proteomes of treated mice
Description: (§1) The extent of these target profiles were confirmed by performing ABPP coupled to high-resolution, quantitative mass spectrometry (MS). Briefly, brain proteomes from compound and vehicle-treated mice were incubated with the serine hydrolase directed activity-based probe FP-biotin, and probe-labeled enzymes were enriched by streptavidin chromatography, digested on bead with trypsin, and the resulting tryptic peptides modified by reductive dimethylation (ReDiMe) of lysine residues using isotopically heavy and light formaldehyde, respectively. In these experiments, inhibited serine hydrolases are identified as enzymes showing low heavy/light ReDiMe ratios.

CES1C = CES1C (Mus musculus (Mouse), UniProt P23953); assay: as above; details: brain proteomes of treated mice
Description: as §1

ABHD6 [2] = biological target: T2, ABHD6 (Mus musculus (Mouse), UniProt Q8R2Y0); assay: as above; details: brain proteomes of treated mice
Description: as §1

DAGLβ [3] = biological target: T3, DAGLβ (Mus musculus (Mouse), UniProt Q91WC9); assay: as above; details: brain proteomes of treated mice
Description: as §1

DAGL enzymes = assay: brain proteomes of treated mice conjugated to Cy5 fluorophore by CuAAC; type: in vivo, mouse
[4] = tested on: brain 2-AG and other DAGL-regulated lipids; assay: brain lipid profiles of treated mice by LC-MS; type: in vivo, mouse; details: for brain 2-AG levels / brain AA / brain AEA / brain C18:1/C20:4 DAG / brain PGD2 / brain PGE2 / brain SAG: 50 mg/kg i.p., 4 hr post-dosing
Description: Brain lipid profiles of mice treated with compounds 14, 17 and control compound 22.
Mice were treated with 50 mg/kg compound (i.p.), followed by lipid profiling using LC-MS at a 4 hr post-dosing. […] This depletion of brain 2-AG in compound 14 and 17-treated mice was dose-dependent (data not shown) and was observed within 2 h after injection. […] The changes in each lipid species were dose-dependent and were absent in compound 22 treated mice (FIGS. 6C, E, G, I, and K).

DAGLα [5] = biological target: T1, DAGLα; assay: gel-based ABPP of mouse brain proteome, endogenous DAGLs, probe compound 58 and HT-01; type: biochemical
Description: (§2) Compounds 14 and 17 were evaluated for activity and selectivity against endogenous DAGLs and other serine hydrolases in the mouse brain proteome using a ABPP of mouse brain proteome assay as described in Example 16. These experiments were performed using three different activity-based probesprobe compound 58 (targets DAGLα and DAGLβ), HT-01 (targets DAGLα and DAGLβ), and FP-Rh (broad-spectrum serine hydrolase-directed probe fluorophosphonate-rhodamine).
(§3) Data represent average values±SEM; n=3 per group. […] Compounds 14 and 17 had minimal and negligible binding, respectively, to cannabinoid CB1 (CB1R) and CB2 (CB2R) receptors as measured with a radioligand binding assay (IC50 values>1 μM) (data not shown).

DAGLβ [6] = biological target: T3, DAGLβ; assay: as above; type: biochemical
Description: as §2, §3

DAGLα [7] = biological target: T1, DAGLα; assay: in vivo inhibition, brain tissue analyzed by ABPP; details: male C57BL/6 mice, intraperitoneal, 4 hr; for ED50: mouse, ip
Description: (§4) Mice were administered DAGL test compounds and the activity and selectivity of compounds 14 and 17 in vivo was assessed.
(§5) Compound 14, 17 or vehicle was administered intraperitoneally to male C57BL/6 mice across a dose range of 3-50 mg/kg. After 4 hr, the mice were sacrificed and brain tissue analyzed by ABPP, generally as described in Example 16, with compound probe 58, HT-01 probe, and FP-Rh probe.

ABHD6 [8] = biological target: T2, ABHD6; assay: in vivo inhibition, brain tissue analyzed by ABPP; details: mice, intraperitoneal 3-50 mg/kg, 4 hr
Description: as §4, §5

DAGLβ [9] = biological target: T3, DAGLβ; assay: in vivo inhibition, brain tissue analyzed by ABPP; details: mice, intraperitoneal 3-50 mg/kg, 4 hr
Description: as §4, §5

[10] = tested on: LPS-induced neuroinflammatory responses (brain lipids, cytokines, body temperature); assay: LPS-induced neuroinflammatory responses in mouse brain; type: in vivo; details: mice; for LPS-induced elevation in brain 2-AG / LPS-induced elevation in brain PGE2 / LPS-stimulated brain cytokines: 50 mg/kg i.p. 60-90 min before LPS 20 mg/kg i.p., 6 hr; for LPS-induced anapyrexia: 50 mg/kg i.p. before LPS; for brain 2-AG under basal control conditions / brain AA under basal control conditions / brain PGE2 under basal control conditions: 50 mg/kg i.p., no LPS
Description: The effects of pharmacological and genetic inactivation of DAGL activity on neuroinflammatory responses (brain prostaglandin and cytokine production) induced by high-dose lipopolysaccharide treatment was examined.
Mice were treated with compounds 14, 17, control compound 22 or vehicle (50 mg/kg, i.p) for 60-90 min, followed by LPS (20 mg/kg, i.p., 6 hr) or vehicle. The mice were subsequently sacrificed and their brain lipid and cytokine profiles analyzed. […] The LPS-induced elevations in both 2-AG and PGE2 were suppressed in compound 14 and compound 17 treated mice and DAGLα/mice, but not compound 22 treated mice. […] LPS-induced anapyrexia was blunted in compound 14 and 17 treated mice (FIG. 8E) and DAGLα−/− mice (FIG. 8F), but not compound 22 treated mice (FIG. 8E).

[11] = tested on: DSI at CA1 pyramidal neuron synapses; assay: depolarization-induced suppression of inhibition (DSI) in hippocampal slices; details: bath application 30 min
Description: DSI was evaluated at CA1 pyramidal neuron synapses in hippocampal slices. DSI was induced in vehicle-treated hippocampal slices by applying a brief depolarization while evoking […] through stimulation of synaptic inhibitory inputs (FIG. 7C). Bath application of compound 14 (10 μM) and compound 17 (1 μM), but not compound 22 (10 μM), for 30 min before starting electrophysiological recordings blocked hippocampal DSI (FIGS. 7C and D).

[12] = tested on: DSE at parallel fiber to Purkinje cell synapses; assay: depolarization-induced suppression of excitation (DSE) in acute cerebellar slices; details: purkinje; bath application to cerebellar slices 30 min before recordings; read-out: half-maximal inhibition of DSE
Source text: Various forms of synaptic plasticity are regulated by 2-AG signaling, included depolarization-induced suppression of excitation (DSE) and inhibition (DSI). DSE was examined at parallel fiber (PF) to Purkinje cell (PC) synapses in acute cerebellar slices. A brief depolarization of PCs induced robust transient DSE at PF-PC synapses in vehicle treated cerebellar slices (FIG. 7A).

PLA2G7 = PLA2G7 (Mus musculus (Mouse), UniProt Q60963); assay: in vivo ABPP coupled to quantitative mass spectrometry (FP-biotin, ReDiMe); details: brain proteomes of treated mice
Description: as §1

T2 sequence (Q8R2Y0 whole entry): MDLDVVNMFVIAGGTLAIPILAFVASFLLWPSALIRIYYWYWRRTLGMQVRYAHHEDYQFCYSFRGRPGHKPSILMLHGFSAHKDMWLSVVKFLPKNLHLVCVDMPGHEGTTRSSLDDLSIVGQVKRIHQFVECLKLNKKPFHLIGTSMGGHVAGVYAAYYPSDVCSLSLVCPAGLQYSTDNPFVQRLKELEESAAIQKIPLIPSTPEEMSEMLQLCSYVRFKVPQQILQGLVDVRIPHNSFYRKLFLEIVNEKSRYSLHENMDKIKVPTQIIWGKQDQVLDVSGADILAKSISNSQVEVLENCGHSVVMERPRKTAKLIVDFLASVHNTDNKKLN
T1 sequence (Q6WQJ1 whole entry): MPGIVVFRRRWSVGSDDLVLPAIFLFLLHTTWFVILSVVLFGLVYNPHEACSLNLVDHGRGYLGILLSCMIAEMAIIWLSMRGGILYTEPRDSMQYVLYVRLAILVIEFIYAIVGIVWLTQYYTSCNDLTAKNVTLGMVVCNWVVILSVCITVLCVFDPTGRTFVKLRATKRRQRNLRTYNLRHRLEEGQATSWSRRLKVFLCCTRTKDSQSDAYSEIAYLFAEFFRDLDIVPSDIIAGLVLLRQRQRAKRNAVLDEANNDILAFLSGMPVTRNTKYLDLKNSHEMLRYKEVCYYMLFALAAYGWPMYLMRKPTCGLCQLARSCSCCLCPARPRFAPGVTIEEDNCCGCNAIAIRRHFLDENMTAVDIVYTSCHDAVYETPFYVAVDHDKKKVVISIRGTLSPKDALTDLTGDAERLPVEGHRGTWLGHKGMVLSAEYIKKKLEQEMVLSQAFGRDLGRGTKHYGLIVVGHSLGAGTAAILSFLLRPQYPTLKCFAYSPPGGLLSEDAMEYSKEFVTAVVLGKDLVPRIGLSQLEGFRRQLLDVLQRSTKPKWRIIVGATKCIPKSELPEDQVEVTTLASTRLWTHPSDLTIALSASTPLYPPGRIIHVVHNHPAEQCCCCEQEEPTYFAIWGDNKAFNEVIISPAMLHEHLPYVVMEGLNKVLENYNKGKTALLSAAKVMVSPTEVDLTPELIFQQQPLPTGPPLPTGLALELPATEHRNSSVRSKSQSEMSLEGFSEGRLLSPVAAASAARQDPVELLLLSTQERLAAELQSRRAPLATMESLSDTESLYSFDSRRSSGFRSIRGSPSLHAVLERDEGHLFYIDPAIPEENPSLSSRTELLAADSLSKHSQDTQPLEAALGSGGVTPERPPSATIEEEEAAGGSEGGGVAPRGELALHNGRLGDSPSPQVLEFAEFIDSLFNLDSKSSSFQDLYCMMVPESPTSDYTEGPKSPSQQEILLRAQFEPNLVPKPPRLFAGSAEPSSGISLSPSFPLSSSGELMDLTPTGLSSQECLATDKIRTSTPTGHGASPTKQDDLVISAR
T3 sequence (Q91WC9 whole entry): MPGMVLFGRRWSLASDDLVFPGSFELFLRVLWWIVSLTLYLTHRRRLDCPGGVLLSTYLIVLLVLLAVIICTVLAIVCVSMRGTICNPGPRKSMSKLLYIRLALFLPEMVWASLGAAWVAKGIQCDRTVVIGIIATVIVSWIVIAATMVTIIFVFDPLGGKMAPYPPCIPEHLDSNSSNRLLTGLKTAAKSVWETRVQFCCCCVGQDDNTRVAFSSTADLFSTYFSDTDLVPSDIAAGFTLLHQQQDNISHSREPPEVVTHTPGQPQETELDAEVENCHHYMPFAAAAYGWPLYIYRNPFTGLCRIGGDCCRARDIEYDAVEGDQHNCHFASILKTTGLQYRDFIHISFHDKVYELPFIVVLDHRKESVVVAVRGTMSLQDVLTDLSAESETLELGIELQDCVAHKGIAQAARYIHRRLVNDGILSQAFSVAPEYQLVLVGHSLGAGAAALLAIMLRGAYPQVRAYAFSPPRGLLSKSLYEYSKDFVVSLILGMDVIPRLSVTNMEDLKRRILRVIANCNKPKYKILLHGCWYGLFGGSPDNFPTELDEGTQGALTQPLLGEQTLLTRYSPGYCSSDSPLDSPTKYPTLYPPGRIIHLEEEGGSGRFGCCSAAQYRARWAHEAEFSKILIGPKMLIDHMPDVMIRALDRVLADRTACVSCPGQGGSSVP
Sequence of CES1C (P23953 19-554): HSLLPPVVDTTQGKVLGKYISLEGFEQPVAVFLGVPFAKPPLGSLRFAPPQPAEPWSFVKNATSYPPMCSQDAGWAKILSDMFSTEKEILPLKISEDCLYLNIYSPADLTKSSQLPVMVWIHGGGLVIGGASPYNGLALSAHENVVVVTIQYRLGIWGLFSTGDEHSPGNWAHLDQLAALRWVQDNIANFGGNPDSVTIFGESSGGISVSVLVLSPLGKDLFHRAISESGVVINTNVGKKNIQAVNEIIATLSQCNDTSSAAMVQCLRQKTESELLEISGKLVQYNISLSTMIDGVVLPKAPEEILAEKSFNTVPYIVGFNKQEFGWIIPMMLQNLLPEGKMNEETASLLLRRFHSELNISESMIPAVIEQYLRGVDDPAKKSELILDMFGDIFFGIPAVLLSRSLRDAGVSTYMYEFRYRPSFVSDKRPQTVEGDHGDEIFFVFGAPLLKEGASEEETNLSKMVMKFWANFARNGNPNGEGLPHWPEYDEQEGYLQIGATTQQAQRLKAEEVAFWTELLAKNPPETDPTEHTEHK
Sequence of PLA2G7 (Q60963 22-440): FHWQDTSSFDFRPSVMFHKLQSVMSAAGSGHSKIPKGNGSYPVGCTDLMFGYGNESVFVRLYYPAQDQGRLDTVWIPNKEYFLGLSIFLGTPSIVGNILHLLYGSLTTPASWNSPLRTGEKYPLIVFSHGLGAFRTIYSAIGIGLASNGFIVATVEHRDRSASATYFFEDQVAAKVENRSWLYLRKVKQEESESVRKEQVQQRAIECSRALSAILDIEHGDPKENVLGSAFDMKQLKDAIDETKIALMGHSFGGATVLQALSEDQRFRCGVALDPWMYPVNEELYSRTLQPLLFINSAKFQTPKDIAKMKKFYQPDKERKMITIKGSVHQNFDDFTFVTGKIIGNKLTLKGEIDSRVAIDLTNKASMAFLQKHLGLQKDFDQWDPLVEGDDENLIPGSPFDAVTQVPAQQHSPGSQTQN

C#CCO[C@@H]1CC[C@H](Cc2ccccc2)N(C(=O)n2ncc(C(O)(c3ccc(F)cc3)c3ccc(F)cc3)n2)C1 [Compound 14, ((2R,5R)-2-Benzyl-5-(prop-2-ynyloxy)piperidin-1-yl)(4-(bis(4-fluorophenyl)(hydroxy)methyl)-2H-1,2,3-triazol-2-yl)methanone]
duration of sustained inhibition of DAGLs (DAGLs): up to 8 hr | DAGL activity at 24-hr post dosing (DAGLs): partial recovery | inhibition of DAGLα by quantitative MS (DAGLα [1]): complete inhibition | heavy/light ReDiMe ratio, CES1C (off-target) (CES1C): < 0.5 | heavy/light ReDiMe ratio, ABHD6 (off-target) (ABHD6 [2]): < 0.5 | inhibition of DAGLβ by quantitative MS (DAGLβ [3]): strongly | labeling of DAGL enzymes in brain proteomes of treated mice (DAGL enzymes): direct, dose-dependent labeling | time after injection at which depletion of brain 2-AG was observed [4]: ≤ 2 h | brain 2-AG levels [4]: reduced | brain AA [4]: reductions | brain AEA [4]: reductions | brain C18:1/C20:4 DAG [4]: elevations | brain PGD2 [4]: reductions | brain PGE2 [4]: reductions | brain SAG [4]: elevations | IC50 (DAGLα [5]): 0.5 to 1.2 nM | IC50 (DAGLβ [6]): 2.3 to 4.8 nM | dose with full inhibition of DAGLα (DAGLα [7]): 30 to 50 mg/kg | ED50 (DAGLα [7]): 5 to 10 mg/kg | inhibition of ABHD6 in vivo (ABHD6 [8]): inhibited | inhibition of DAGLβ in vivo (DAGLβ [9]): inhibited | LPS-induced elevation in brain 2-AG [10]: suppressed | LPS-induced elevation in brain PGE2 [10]: suppressed | LPS-stimulated brain cytokines [10]: reductions | LPS-induced anapyrexia [10]: blunted | brain 2-AG under basal control conditions [10]: severely depleted | brain AA under basal control conditions [10]: severely depleted | brain PGE2 under basal control conditions [10]: severely depleted | effect on hippocampal DSI ([11]; 10 μM): blocked | IC50 [12]: 1100 nM

CC(C)(C)OC(=O)N1CCN(C(=O)n2cc(-c3ccc(OC(F)(F)F)cc3)nn2)C(Cc2ccccc2)C1 (stereo not drawn) [Compound 17, tert-Butyl 3-benzyl-4-(4-(4-(trifluoromethoxy)phenyl)-1H-1,2,3-triazole-1-carbonyl)piperazine-1-carboxylate]
duration of sustained inhibition of DAGLs (DAGLs): up to 8 hr | DAGL activity at 24-hr post dosing (DAGLs): partial recovery | inhibition of DAGLα by quantitative MS (DAGLα [1]): complete inhibition | heavy/light ReDiMe ratio, PLA2G7 (off-target) (PLA2G7): < 0.5 | heavy/light ReDiMe ratio, CES1C (off-target) (CES1C): < 0.5 | heavy/light ReDiMe ratio, ABHD6 (off-target) (ABHD6 [2]): < 0.5 | inhibition of DAGLβ by quantitative MS (DAGLβ [3]): partially | time after injection at which depletion of brain 2-AG was observed [4]: ≤ 2 h | brain 2-AG levels [4]: reduced | brain AA [4]: reductions | brain AEA [4]: reductions | brain C18:1/C20:4 DAG [4]: elevations | brain PGD2 [4]: reductions | brain PGE2 [4]: reductions | brain SAG [4]: elevations | IC50 (DAGLα [5]; mouse brain proteome, probes 1 μM, 30 min, read-out: IC50, DAGLα labeling by compound 58 and HT-01): 0.5 to 1.2 nM | IC50 (DAGLβ [6]; mouse brain proteome, probes 1 μM, 30 min, read-out: IC50, DAGLβ labeling by compound 58 and HT-01): 2.3 to 4.8 nM | dose with full inhibition of DAGLα (DAGLα [7]): 30 to 50 mg/kg | ED50 (DAGLα [7]): 5 to 10 mg/kg | inhibition of ABHD6 in vivo (ABHD6 [8]): inhibited | inhibition of DAGLβ in vivo (DAGLβ [9]): inhibited | LPS-induced elevation in brain 2-AG [10]: suppressed | LPS-induced elevation in brain PGE2 [10]: suppressed | LPS-stimulated brain cytokines [10]: reductions | LPS-induced anapyrexia [10]: blunted | brain 2-AG under basal control conditions [10]: severely depleted | brain AA under basal control conditions [10]: severely depleted | brain PGE2 under basal control conditions [10]: severely depleted | effect on hippocampal DSI ([11]; 1 μM): blocked | IC50 [12]: 180 nM

From patent US10583137B2, “Triazole DAGLα inhibitors” (THE SCRIPPS RESEARCH INSTITUTE, priority 2015, dated 2020)
